Data from paper PMC10301845, “Characterization of a Novel M4 PAM PET Radioligand [11C]PF06885190 in Nonhuman Primates (NHP)” (Molecules, 2023).
Like-named read-outs stand apart in the source and are kept apart here.

Columns and labels:
[1] = Radiometabolite analysis in NHP blood plasma (gradient HPLC); format: in vivo, cynomolgus monkey
Procedure: Radiometabolites in NHP blood plasma were analyzed following a previously published method. A reverse-phase HPLC system with an UV absorbance detector (ƛ = 254 nm) coupled to a radio detector was used to determine the percentages of radioactivity corresponding to [^11C]PF06885190 and its radioactive metabolites during whole PET measurement. Arterial blood samples (0.7–1.5 mL) were obtained using an automated blood sampling system from the monkey at different time points such as 2, 5, 15, 30 and 60 min after injection of [^11C]PF06885190 following a previously described method. Plasma was separated from collected blood by centrifuging at 4000 rpm for 2 min. The obtained plasma was diluted with 1.4 times volume of acetonitrile and then centrifuged at 6000 rpm for 4 min. The extract was separated from the pellet and was diluted with water (3 mL) before being injected into the HPLC system. The HPLC system was coupled to an Agilent binary pump (Agilent 1200 series) which was connected to a manual injection valve (7725i, Rheodyne), a 5.0 mL loop, and a radiation detector (Oyokoken, S-2493Z) housed in a shield of 50 mm thick lead. A semi-preparative reverse-phase, an ACE 5µm C18 HL column ([…]), was used to achieve the chromatographic separation (Figure S4A,B, Supplementary Material) of the radiometabolites from the unchanged parent compound [^11C]PF06885190 by gradient elution. Acetonitrile (A) and 0.1 M amoniumformate (B) were used as the mobile phase at flow rate 5.0 mL/min, according to the following program: 0−4.0 min, (A/B) 40:60 → 90:10 v/v; 4.0−6.0 min, (A/B) 90:10 v/v. a radioactive peak corresponding to [^11C]PF06885190 eluted from the HPLC column was integrated and the area was expressed as a percentage of the sum of the areas of all detected radioactive compounds. To calculate the recovery of radioactivity from the system, the eluate from the HPLC column was measured in a capintec dose calibrator and divided by the amount of total radioactivity injected into the HPLC.

monkey plasma proteins = assay: Protein binding in plasma (ultrafiltration); format: in vitro ADME
Procedure: (§1) The free fraction (fp) in blood plasma was measured using an ultrafiltration method with the blood sample collected before the injection of [^11C]PF06885190. Plasma (0.4 mL) was mixed with [^11C]PF06885190 formulation (0.04 mL, ~1 MBq) and incubated at room temperature (RT) for 10 min. To estimate the non-specific binding percent, the same process was performed on phosphate buffered saline (PBS) (0.4 mL) as a control solution. After the incubation, 0.2 mL of the plasma and PBS incubated mixtures were pipetted into ultrafiltration tubes (Centrifree YM-30, molecular weight cutoff, 30,000 Da; Millipore: Billerica, MA, USA) and centrifuged at 3800 rpm for 15 min. Equal aliquots (0.02 mL) of the ultrafiltrate (Cfree) and the plasma (Ctotal) were counted for their radioactivity with a NaI well-counter. Each determination was performed in triplicate. The free fraction was then calculated as fp = Cfree/Ctotal, and the results were corrected for the membrane binding measured with the control samples.

[2] = Protein binding in plasma (ultrafiltration); format: in vitro ADME, monkey; details: male, cynomolgus, monkey, plasma, read-out: free fraction in plasma
Procedure: as §1

[3] = Stability of the radioligand in the formulation (analytical HPLC); format: physicochemical; details: sterile PBS formulation; up to 60 min / 1 h after end of synthesis
Procedure: The radiochemical purity and stability of [^11C]PF06885190 was determined by an analytical HPLC system coupled with an analytical XBridge column (C18 5 µm, 4.6 × 150 mm particle size), a Merck Hitachi L-7100 Pump, a L-7400 UV detector and a GM-tube for radioactivity detection (VWR International). A mixture of acetonitrile (30%) and HCO2NH4 (0.1 M aq. solution) (70%) with a flow rate of 2 mL/min was used as the HPLC isocratic mobile phase. The HPLC elution profile was monitored with an UV absorbance detector (ƛ = 254 nm) coupled to a radioactive detector (BETA-flow, Beckman, Fullerton, CA). [^11C]PF-06885190 was eluted with a retention time of (tR) 4.0–4.5 min (Figure S3, Supplementary Material) and the run time of the HPLC program was 8 min. The identity of the radiolabeled compounds was confirmed by HPLC with the co-injection of the corresponding authentic reference standard. The MA was calculated by analytical HPLC following the method described previously reported.

[4] = after pretreatment with donepezil

SMILES: Cc1nc(N[11CH3])c2c(c1C)CN(C(=O)C[C@H]1C[C@@H]1c1ccc(F)nc1)C2 [[^11C]PF06885190]
- parent compound in plasma ([1]; 5 min after injection): approximately 95%
- parent compound in plasma ([1]; 60 min, after pretreatment with CVL-231): about 20%
- parent compound in plasma ([1]; 60 min, after pretreatment with donepezil): about 30%
- parent compound in plasma ([1]; 60 min, baseline condition): about 20%
- Binding to monkey plasma proteins (monkey plasma proteins; [4]): 87.9 ± 0.3%
- Binding to monkey plasma proteins (monkey plasma proteins; baseline): 75.2 ± 4.2%
- fraction unbound at 10 min [2, 4]: 0.121
- fraction unbound at 10 min ([2]; baseline): 0.248
- stability in formulation, radiochemical purity [3]: exceeding 99%
